What was measured:
Pityrosporum ovlae = assay: Antibacterial activity against Pityrosporum ovlae (general statement); format: cell-based
[1] = Stability of iodopropynyl butylcarbamate to temperature and pH; conditions: 70~80° C. and pH 4~10
Solubility = format: physicochemical
[2] = cited from earlier work; for Acute Oral LD50: rats
[3] = cited from earlier work

| Structure (SMILES) | MIC (Pityrosporum ovlae) | antibacterial action (Pityrosporum ovlae) | stability [1] | solubility in alcohols or glycol derivatives (Solubility; alcohols or glycol derivatives) | solubility in ionic or non-ionic surfactants (Solubility; ionic or non-ionic surfactants) | solubility in water (Solubility; water) | safety and toxicity compared with zinc pyrithione ([2]; compared with zinc pyrithione) | Acute Oral LD50 [2] [mg/kg] | solubility in ethanol ([3]; ethanol) [ppm] | solubility in water at 25° C. ([3]; water, 25° C.) | solubility ([3]; water, ethanol and most common organic solvents such as ethylene glycol, diethyl ether and isopropanol) |
| --- | --- | --- | --- | --- | --- | --- | --- | --- | --- | --- | --- |
| CCCCNC(=O)OCC#CI [iodopropynyl butylcarbamate] | very low | very strong | very stable | high solubility | good solubility | low solubility | very advantageous over zinc pyrithione | 1470 |  |  |  |
| [O-]n1ccccc1=S.[O-]n1ccccc1=S.[Zn+2] [zinc pyrithione, zinc salt of 1-hydroxy-2(1H) pyridinethione] |  |  |  |  |  |  |  | 354 | 310 | about 15 ppm | substantially insoluble |

Reference: patent US6054450A, “Hair-care cosmetic compositions having dandruff formation-suppressing effect” (Pacific Corporation, priority 1997, dated 2000)
